Each compound was assayed against USP19 (Homo sapiens (Human), UniProt O94966) (assay: USP19 activity assay (fluorescence polarisation, Ubiquitin-Lys-TAMRA substrate)). Details: full-length USP19 2.5 nM, 30 min pre-incubation, Ub substrate 500 nM; average of at least two duplicate experiments.
Chain of USP19 (O94966 whole entry): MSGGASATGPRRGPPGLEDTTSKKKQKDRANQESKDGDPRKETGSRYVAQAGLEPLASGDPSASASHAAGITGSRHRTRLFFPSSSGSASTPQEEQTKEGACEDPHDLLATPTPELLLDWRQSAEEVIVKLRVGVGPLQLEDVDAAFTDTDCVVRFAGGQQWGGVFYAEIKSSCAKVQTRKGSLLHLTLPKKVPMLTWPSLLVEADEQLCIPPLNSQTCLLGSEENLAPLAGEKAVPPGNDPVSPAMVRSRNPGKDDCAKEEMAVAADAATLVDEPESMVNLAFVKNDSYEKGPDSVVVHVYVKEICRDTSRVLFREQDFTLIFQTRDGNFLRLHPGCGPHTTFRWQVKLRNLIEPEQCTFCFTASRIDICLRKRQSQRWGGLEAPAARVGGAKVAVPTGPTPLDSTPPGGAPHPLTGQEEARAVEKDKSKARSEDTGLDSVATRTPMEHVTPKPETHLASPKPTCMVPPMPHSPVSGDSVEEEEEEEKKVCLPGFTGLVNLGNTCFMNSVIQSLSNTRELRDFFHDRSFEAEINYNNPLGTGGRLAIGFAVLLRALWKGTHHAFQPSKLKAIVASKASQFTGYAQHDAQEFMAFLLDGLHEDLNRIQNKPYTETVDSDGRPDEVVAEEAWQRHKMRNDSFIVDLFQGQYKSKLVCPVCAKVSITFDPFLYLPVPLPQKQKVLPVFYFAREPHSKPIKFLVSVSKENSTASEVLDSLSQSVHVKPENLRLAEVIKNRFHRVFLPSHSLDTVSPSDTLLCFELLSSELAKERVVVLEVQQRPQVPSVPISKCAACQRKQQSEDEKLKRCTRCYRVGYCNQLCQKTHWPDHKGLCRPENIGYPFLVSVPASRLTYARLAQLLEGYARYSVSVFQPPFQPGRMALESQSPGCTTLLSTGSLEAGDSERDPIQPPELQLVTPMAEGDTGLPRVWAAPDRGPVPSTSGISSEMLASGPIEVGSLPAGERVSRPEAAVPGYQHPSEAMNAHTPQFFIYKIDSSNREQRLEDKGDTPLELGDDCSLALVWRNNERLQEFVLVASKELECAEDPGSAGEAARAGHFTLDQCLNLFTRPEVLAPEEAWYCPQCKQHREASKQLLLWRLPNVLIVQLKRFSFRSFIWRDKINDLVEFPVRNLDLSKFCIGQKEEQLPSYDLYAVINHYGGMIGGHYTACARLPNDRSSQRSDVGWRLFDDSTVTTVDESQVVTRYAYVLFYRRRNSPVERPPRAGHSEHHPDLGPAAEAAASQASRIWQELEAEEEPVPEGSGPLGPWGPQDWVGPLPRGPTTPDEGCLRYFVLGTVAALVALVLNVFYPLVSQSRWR
Format: biochemical
Protocol: Unless otherwise stated, all other reagents were purchased from Sigma. Enzymatic reactions were conducted in black flat bottom polystyrene 384-well plates (Nunc) and 30 μL total volume. […] Inhibitors were stored as 10 mM DMSO stocks in an inert environment (low humidity, dark, low oxygen, room temperature) using the Storage Pod System and serial dilutions were prepared in buffer just prior to the assay (from 200 μM to 2 pM, 8-18 data point curve). Following incubation at RT for 30 min, the enzymatic reactions were initiated by dispensing the Ub substrate (500 nM, 10 μL). FP was measured every 15 min over a period of 90 min (within the linear range of the assay) using a Synergy 4 plate reader (BioTek) exciting at 530 nm and measuring the amount of parallel and perpendicular light at 575 nm. The FP signal was subsequently normalised to the no compound control.
Work on `C[C@H](CC1CCCCC1)C(=O)N1CCC(O)(Cn2cc(-c3cccc(CN)c3)c(-c3ccccc3F)cc2=O)CC1` [Example 52, (R)-5-(3-(Aminomethyl)phenyl)-1-((1-(3-cyclohexyl-2-methylpropanoyl)-4-hydroxypiperidin-4-yl)methyl)-4-(2-fluorophenyl)pyridin-2(1H)-one] yielded an IC50 of 0.5 to 5 µM. Compound `C[C@H](CC(=O)N1CCC(O)(Cn2cnc(Oc3ccc(F)cc3)cc2=O)CC1)c1ccccc1` [Example 54] has an IC50 of 50 to 250 µM. With `C[C@H](CC(=O)N1CCC(O)(Cn2cc(N3CCCC3=O)c(-c3ccccc3)cc2=O)CC1)c1ccccc1` [Example 55, (R)-1-((4-Hydroxy-1-(3-phenylbutanoyl)piperidin-4-yl)methyl)-5-(2-oxopyrrolidin-1-yl)-4-phenylpyridin-2(1H)-one] the IC50 was 5 to 50 µM. In the case of `C=C1CCC(C)(C(=O)N2CCC(O)(Cn3cnc(-c4ccccc4F)cc3=O)CC2)CC1` [Example 56, 6-(2-Fluorophenyl)-3-((4-hydroxy-1-(1-methyl-4-methylenecyclohexanecarbonyl)piperidin-4-yl)methyl)pyrimidin-4(3H)-one], the IC50 is reported as 5 to 50 µM. Work on `CC(C)(CC1CCC1)C(=O)N1CCC(O)(Cn2cnc(-c3ccccc3F)cc2=O)CC1` [Example 59, 3-((1-(3-Cyclobutyl-2,2-dimethylpropanoyl)-4-hydroxypiperidin-4-yl)methyl)-6-(2-fluorophenyl)pyrimidin-4(3H)-one] yielded an IC50 of 5 to 50 µM. With `C[C@H](CC(=O)N1C[C@H]2CC[C@@H](C1)C2(O)Cn1cnc(-c2ccccc2F)cc1=O)c1ccccc1` (some centres unmarked) [Example 60] the IC50 was 5 to 50 µM. Work on `C[C@H](CC(=O)N1CCC(O)(Cn2cc(C(=O)N3CCC(O)CC3)c(-c3ccccc3)cc2=O)CC1)c1ccccc1` [Example 62, (R)-1-((4-Hydroxy-1-(3-phenylbutanoyl)piperidin-4-yl)methyl)-5-(4-hydroxypiperidine-1-carbonyl)-4-phenylpyridin-2(1H)-one] yielded an IC50 of 0.5 to 5 µM. Compound `C[C@H](CC(=O)N1CCC(O)(Cn2cc(C(=O)N3CCCC3)c(-c3ccccc3)cc2=O)CC1)c1ccccc1` [Example 63, (R)-1-((4-Hydroxy-1-(3-phenylbutanoyl)piperidin-4-yl)methyl)-4-phenyl-5-(pyrrolidine-1-carbonyl)pyridin-2(1H)-one] has an IC50 of 0.5 to 5 µM. `C[C@H](CC(=O)N1CCC(O)(Cn2cc(C(=O)N3CCC4(CC3)OCCO4)c(-c3ccccc3)cc2=O)CC1)c1ccccc1` [Example 64, (R)-1-((4-Hydroxy-1-(3-phenylbutanoyl)piperidin-4-yl)methyl)-4-phenyl-5-(1,4-dioxa-8-azaspiro[4.5]decane-8-carbonyl)pyridin-2(1H)-one] was tested, and the IC50 was 5 to 50 µM. In the case of `C[C@H](CC(=O)N1CCC(O)(Cn2cc(C(=O)NC3CCCCC3)c(-c3ccccc3)cc2=O)CC1)c1ccccc1` [Example 65, (R)—N-Cyclohexyl-1-((4-hydroxy-1-(3-phenylbutanoyl)piperidin-4-yl)methyl)-6-oxo-4-phenyl-1,6-dihydropyridine-3-carboxamide], the IC50 is reported as 5 to 50 µM. Work on `CC(C)N(C)C(=O)c1cn(CC2(O)CCN(C(=O)C[C@@H](c3ccccc3)C(F)F)CC2)c(=O)cc1-c1ccccc1` [Example 71, (S)-1-((1-(4,4-Difluoro-3-phenylbutanoyl)-4-hydroxypiperidin-4-yl)methyl)-N-isopropyl-N-methyl-6-oxo-4-phenyl-1,6-dihydropyridine-3-carboxamide] yielded an IC50 of 5 to 50 µM. Work on `CC(C)N(C)C(=O)c1cn(CC2(O)CCN(C(=O)C3(c4cccs4)CC3)CC2)c(=O)cc1-c1ccccc1` [Example 72, 1-((4-Hydroxy-1-(1-(thiophen-2-yl)cyclopropane-1-carbonyl)piperidin-4-yl)methyl)-N-isopropyl-N-methyl-6-oxo-4-phenyl-1,6-dihydropyridine-3-carboxamide] yielded an IC50 of 50 to 250 µM. `C[C@H](CC(=O)N1CCC(O)(Cn2cnc(-c3ccccc3CO)cc2=O)CC1)c1ccccc1` [Example 74, (R)-3-((4-Hydroxy-1-(3-phenylbutanoyl)piperidin-4-yl)methyl)-6-(2-(hydroxymethyl)phenyl)pyrimidin-4(3H)-one] gave an IC50 of 50 to 250 µM. `CCN(CC)C(=O)c1cn(CC2(O)CCN(C(=O)C[C@@H](C)c3ccccc3)CC2)c(=O)cc1-c1ccccc1` [Example 75, (R)—N,N-Diethyl-1-((4-hydroxy-1-(3-phenylbutanoyl)piperidin-4-yl)methyl)-6-oxo-4-phenyl-1,6-dihydropyridine-3-carboxamide] was tested, and the IC50 was 0.5 to 5 µM. Compound `CC(CC(=O)N1CCC(O)(Cn2cnc(-c3ccccc3F)cc2=O)C(C)(C)C1)C1CCCCC1` (centres unmarked) [Example 76, 3-((1-(3-Cyclohexylbutanoyl)-4-hydroxy-3,3-dimethylpiperidin-4-yl)methyl)-6-(2-fluorophenyl)pyrimidin-4(3H)-one] has an IC50 of 0.5 to 5 µM. With `C[C@H](CC(=O)N1CCC(O)(Cn2cc(C(=O)N3CCOCC3)c(-c3ccccc3)cc2=O)CC1)c1ccccc1` [Example 77, (R)-1-((4-Hydroxy-1-(3-phenylbutanoyl)piperidin-4-yl)methyl)-5-(morpholine-4-carbonyl)-4-phenylpyridin-2(1H)-one] the IC50 was 0.5 to 5 µM. `O=C(CCc1ccc(F)cc1)N1CCC(O)(Cn2cnc(-c3ccccc3F)cc2=O)CC1` [Example 82, 6-(2-Fluorophenyl)-3-((1-(3-(4-fluorophenyl)propanoyl)-4-hydroxypiperidin-4-yl)methyl)pyrimidin-4(3H)-one] was tested, and the IC50 was 50 to 250 µM. Work on `CCC(C)(C)C(=O)N1CCC(O)(Cn2cc(C(=O)N(C)C(C)C)c(-c3ccccc3)cc2=O)CC1` [Example 84, 1-((1-(2,2-Dimethylbutanoyl)-4-hydroxypiperidin-4-yl)methyl)-N-isopropyl-N-methyl-6-oxo-4-phenyl-1,6-dihydropyridine-3-carboxamide] yielded an IC50 of 50 to 250 µM. Work on `CC(=O)Nc1ccccc1-c1cc(=O)n(CC2(O)CCN(C(=O)C[C@@H](C)c3ccccc3)CC2)cn1` [Example 85, (R)—N-(2-(1-((4-Hydroxy-1-(3-phenylbutanoyl)piperidin-4-yl)methyl)-6-oxo-1,6-dihydropyrimidin-4-yl)phenyl)acetamide] yielded an IC50 of 50 to 250 µM. Compound `C[C@H](CC(=O)N1CCC(O)(Cn2cc(-c3ccc(CN)cc3)c(-c3ccccc3)cc2=O)CC1)c1ccccc1` [Example 86, (R)-5-(4-(Aminomethyl)phenyl)-1-((4-hydroxy-1-(3-phenylbutanoyl)piperidin-4-yl)methyl)-4-phenylpyridin-2(1H)-one] has an IC50 of 5 to 50 µM. `CC(C)N(C)C(=O)c1cn(CC2(O)CCN(C(=O)[C@H](C)CC3CCCCC3)CC2)c(=O)cc1-c1ccccc1` [Example 87, (R)-1-((1-(3-Cyclohexyl-2-methylpropanoyl)-4-hydroxypiperidin-4-yl)methyl)-N-isopropyl-N-methyl-6-oxo-4-phenyl-1,6-dihydropyridine-3-carboxamide] showed an IC50 of 0.5 to 5 µM. Compound `C[C@H](CC(=O)N1CCC(O)(Cn2cc(C(=O)N3CCCCC3)c(-c3ccccc3)cc2=O)CC1)c1ccccc1` [Example 88, (R)-1-((4-Hydroxy-1-(3-phenylbutanoyl)piperidin-4-yl)methyl)-4-phenyl-5-(piperidine-1-carbonyl)pyridin-2(1H)-one] has an IC50 of 0.5 to 5 µM. For `COc1ccccc1-c1cc(=O)n(CC2(O)CCN(C(=O)C[C@@H](C)c3ccccc3)CC2)cc1C(=O)N(C)C(C)C` [Example 89, (R)-1-((4-Hydroxy-1-(3-phenylbutanoyl)piperidin-4-yl)methyl)-N-isopropyl-4-(2-methoxyphenyl)-N-methyl-6-oxo-1,6-dihydropyridine-3-carboxamide], the IC50 was 0.5 to 5 µM. `CC(C)N(C)C(=O)c1cn(CC2(O)CCN(C(=O)C[C@@H](C)c3ccccc3)CC2)c(=O)cc1-c1ccccc1F` [Example 90, (R)-4-(2-Fluorophenyl)-1-((4-hydroxy-1-(3-phenylbutanoyl)piperidin-4-yl)methyl)-N-isopropyl-N-methyl-6-oxo-1,6-dihydropyridine-3-carboxamide] gave an IC50 of 0.5 to 5 µM. For `C[C@H](CC(=O)N1CCC(O)(Cn2cc(-c3ccccn3)c(-c3ccccc3)cc2=O)CC1)c1ccccc1` [Example 91, (R)-1′-((4-Hydroxy-1-(3-phenylbutanoyl)piperidin-4-yl)methyl)-4′-phenyl-[2,3′-bipyridin]-6′(1′H)-one], the IC50 was 0.5 to 5 µM. `CC(C)N(C)C(=O)c1cn(CC2(O)CCN(C(=O)CCC3CCCCC3)CC2)c(=O)cc1-c1ccccc1` [Example 92, 1-((1-(3-Cyclohexylpropanoyl)-4-hydroxypiperidin-4-yl)methyl)-N-isopropyl-N-methyl-6-oxo-4-phenyl-1,6-dihydropyridine-3-carboxamide] showed an IC50 of 0.5 to 5 µM. Work on `C[C@H](CC(=O)N1CCC(O)(Cn2cc(C(=O)N3CCN(C(=O)OC(C)(C)C)CC3)c(-c3ccccc3)cc2=O)CC1)c1ccccc1` [Example 93, (R)-tert-Butyl 4-(1-((4-hydroxy-1-(3-phenylbutanoyl)piperidin-4-yl)methyl)-6-oxo-4-phenyl-1,6-dihydropyridine-3-carbonyl)piperazine-1-carboxylate] yielded an IC50 of 5 to 50 µM. `C[C@H](CC(=O)N1CCC(O)(Cn2cc(C(=O)N3CCNCC3)c(-c3ccccc3)cc2=O)CC1)c1ccccc1` [Example 94, (R)-1-((4-Hydroxy-1-(3-phenylbutanoyl)piperidin-4-yl)methyl)-4-phenyl-5-(piperazine-1-carbonyl)pyridin-2(1H)-one] gave an IC50 of 0.5 to 5 µM. Work on `C[C@H](CC(=O)N1CCC(O)(Cn2cc(C(=O)N(C)C)c(-c3ccccc3)cc2=O)CC1)c1ccccc1` [Example 95, (R)-1-((4-Hydroxy-1-(3-phenylbutanoyl)piperidin-4-yl)methyl)-N,N-dimethyl-6-oxo-4-phenyl-1,6-dihydropyridine-3-carboxamide] yielded an IC50 of 5 to 50 µM.
